# Assay results from ChEMBL document CHEMBL1201862, “PubChem BioAssay data set” (2004).
#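 96-well plates; 48 h exposure; 5 concentrations. Endpoints by linear interpolation between flanking doses. Not reached: highest tested concentration assigned. At the GI50, growth is halved.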 Calls of active or inactive are those of the source. Cut-off read from the data, not from the text of the source: active = GI50 up to about 1.1 µM and inactive = higher.
# Key:
# Test in all cases: NCI anticancer screen, dose series, 48 h
# SF-268 = tested on: SF-268
# HCT-15 = tested on: HCT-15
# UACC-257 = tested on: UACC-257
# HCC 2998 = tested on: HCC 2998
# HOP-92 = tested on: HOP-92
# RPMI-8226 = tested on: RPMI-8226
# CCRF-CEM = tested on: CCRF-CEM
# IGROV-1 = tested on: IGROV-1
# MOLT-4 = tested on: MOLT-4
# SK-OV-3 = tested on: SK-OV-3
# KM12 = tested on: KM12
# M14 = tested on: M14
# TK-10 = tested on: TK-10
# NCI-H522 = tested on: NCI-H522
# SK-MEL-5 = tested on: SK-MEL-5
# OVCAR-5 = tested on: OVCAR-5
# NCI-H226 = tested on: NCI-H226
# CAKI-1 = tested on: CAKI-1
SMILES,GI50 (SF-268),GI50 (HCT-15) [µM],GI50 (UACC-257),GI50 (HCC 2998),GI50 (HOP-92),GI50 (RPMI-8226),GI50 (CCRF-CEM),GI50 (IGROV-1),GI50 (MOLT-4),GI50 (SK-OV-3),GI50 (KM12),GI50 (M14),GI50 (TK-10),GI50 (NCI-H522),GI50 (SK-MEL-5),GI50 (OVCAR-5),GI50 (NCI-H226),GI50 (CAKI-1)
CC1(C)CC(=O)C2=C(C1)S/C(=C1/SC3=C(S1)C(=O)CC(C)(C)C3)S2,> 251 µM (inactive),> 251,> 251 µM (inactive),> 251 µM (inactive),> 251 µM (inactive),> 251 µM (inactive),> 251 µM (inactive),> 251 µM (inactive),> 251 µM (inactive),> 251 µM (inactive),> 251 µM (inactive),> 251 µM (inactive),> 251 µM (inactive),> 251 µM (inactive),–,–,–,–
O=C(/C=C/c1cc(Cl)cc(Cl)c1O)c1cccc(O)c1,40.2 µM (inactive),41.5,> 100 µM (inactive),85.3 µM (inactive),27.8 µM (inactive),49.3 µM (inactive),29.9 µM (inactive),42.2 µM (inactive),20.4 µM (inactive),31.8 µM (inactive),54 µM (inactive),29.5 µM (inactive),> 100 µM (inactive),> 100 µM (inactive),45.6 µM (inactive),15 µM (inactive),16.1 µM (inactive),> 100 µM (inactive)
CN(C)C(=S)Nc1nnc(Nc2ccccc2)s1,–,> 100,59 µM (inactive),> 100 µM (inactive),> 100 µM (inactive),–,> 100 µM (inactive),> 100 µM (inactive),> 100 µM (inactive),> 100 µM (inactive),> 10 µM (inactive),> 100 µM (inactive),–,9.51 µM (inactive),38.7 µM (inactive),> 100 µM (inactive),> 100 µM (inactive),> 100 µM (inactive)
COC(=O)C1=C(C)N(NC(N)=O)C2(N)N(NC(N)=O)C(C)=C(C(=O)OC)C12C(=O)OC (stereo not given),> 100 µM (inactive),> 100,> 100 µM (inactive),> 100 µM (inactive),> 100 µM (inactive),> 100 µM (inactive),> 100 µM (inactive),> 100 µM (inactive),> 100 µM (inactive),> 100 µM (inactive),> 10 µM (inactive),> 100 µM (inactive),> 100 µM (inactive),> 100 µM (inactive),–,> 100 µM (inactive),> 100 µM (inactive),> 100 µM (inactive)
C1OC1CO[C@@H]1CO[C@H]2[C@@H]1OC[C@H]2OCC1CO1 (stereo not given in full),> 100 µM (inactive),> 100,> 100 µM (inactive),> 100 µM (inactive),> 100 µM (inactive),> 100 µM (inactive),> 100 µM (inactive),> 100 µM (inactive),78.2 µM (inactive),> 100 µM (inactive),> 100 µM (inactive),> 100 µM (inactive),> 100 µM (inactive),> 100 µM (inactive),> 100 µM (inactive),> 100 µM (inactive),> 100 µM (inactive),67.9 µM (inactive)
O=C(CC(=O)c1cccc2ccccc12)C(=O)NC1C2CC3CC(C2)CC1C3 (stereo not given),> 100 µM (inactive),> 100,> 100 µM (inactive),> 100 µM (inactive),34.4 µM (inactive),> 100 µM (inactive),> 100 µM (inactive),> 100 µM (inactive),> 100 µM (inactive),> 100 µM (inactive),> 100 µM (inactive),> 100 µM (inactive),> 100 µM (inactive),> 100 µM (inactive),> 100 µM (inactive),> 100 µM (inactive),> 100 µM (inactive),> 100 µM (inactive)
C#CN1C(=O)c2c(c(-c3ccccc3)c(-c3ccc(Oc4ccc(-c5c(-c6ccccc6)c6c(c(-c7ccccc7)c5-c5ccccc5)C(=O)N(C#C)C6=O)cc4)cc3)c(-c3ccccc3)c2-c2ccccc2)C1=O,> 100 µM (inactive),30.8,> 100 µM (inactive),> 100 µM (inactive),21.9 µM (inactive),> 100 µM (inactive),> 100 µM (inactive),72.6 µM (inactive),> 100 µM (inactive),–,> 100 µM (inactive),80.7 µM (inactive),> 100 µM (inactive),> 100 µM (inactive),> 100 µM (inactive),> 100 µM (inactive),–,–
O=C(/C=C1/Nc2ccc([N+](=O)[O-])cc2NC1O)c1cccc([N+](=O)[O-])c1 (stereo not given),53.2 µM (inactive),23.5,82.4 µM (inactive),53.5 µM (inactive),> 100 µM (inactive),–,14.5 µM (inactive),> 100 µM (inactive),64.4 µM (inactive),20.3 µM (inactive),–,21.5 µM (inactive),35 µM (inactive),18.7 µM (inactive),70.5 µM (inactive),–,34.8 µM (inactive),56.9 µM (inactive)
COc1ccc(/C(=N\NC(=N)N)C(c2ccc(OC)cc2)C2OC(=O)c3ccccc32)cc1 (stereo not given),> 100 µM (inactive),> 100,> 100 µM (inactive),> 100 µM (inactive),> 100 µM (inactive),> 100 µM (inactive),> 100 µM (inactive),> 100 µM (inactive),> 100 µM (inactive),> 100 µM (inactive),> 100 µM (inactive),> 100 µM (inactive),–,> 100 µM (inactive),> 100 µM (inactive),> 100 µM (inactive),> 100 µM (inactive),> 100 µM (inactive)
O=C(/C=C/c1ccc(OCCCCCCCCCCOc2ccc(/C=C/C(=O)c3ccc(Cl)cc3)cc2)cc1)c1ccc(Cl)cc1,> 100 µM (inactive),> 100,> 100 µM (inactive),> 100 µM (inactive),> 100 µM (inactive),> 100 µM (inactive),> 100 µM (inactive),> 100 µM (inactive),> 100 µM (inactive),> 100 µM (inactive),> 100 µM (inactive),–,> 100 µM (inactive),> 100 µM (inactive),> 100 µM (inactive),> 100 µM (inactive),> 100 µM (inactive),> 100 µM (inactive)
c1ccc(SC23C4C5C6C4C2C6C53)nc1 (stereo not given),> 31.6 µM (inactive),> 100,> 100 µM (inactive),> 100 µM (inactive),> 100 µM (inactive),> 39.5 µM (inactive),> 100 µM (inactive),> 100 µM (inactive),> 100 µM (inactive),> 100 µM (inactive),> 100 µM (inactive),> 100 µM (inactive),> 67.9 µM (inactive),> 100 µM (inactive),> 100 µM (inactive),> 100 µM (inactive),> 100 µM (inactive),> 100 µM (inactive)
COc1cc(C=O)c(-c2cc3c(cc2C2(C)OCCS2)OCO3)c(OC)c1OC (stereo not given),36.5 µM (inactive),8.22,8.83 µM (inactive),16.4 µM (inactive),14.8 µM (inactive),11.4 µM (inactive),7.59 µM (inactive),28.2 µM (inactive),12.5 µM (inactive),13.6 µM (inactive),9.53 µM (inactive),5.73 µM (inactive),57.8 µM (inactive),6.08 µM (inactive),9.14 µM (inactive),50 µM (inactive),6.32 µM (inactive),11.6 µM (inactive)
